In US8207211B2, “Photosensitizers for targeted photodynamic therapy” (The General Hospital Corporation, priority 2005, dated 2012):

What was measured:
C. albicans = assay: Photodynamic inactivation (PDI), CFU survival, white light (red light for TBO); format: cell-based, Candida albicans; details: 10 μM, 10 min
Method: Staphylococcus aureus (ATCC #35556), Escherichia coli (ATCC #25922), and Pseudomonas aeruginosa (ATCC #BAA-47; PAO1) were cultured in brain-heart infusion (BHI) broth (Difco, BD Diagnosttic Systems, Sparks, Md.) at 37° C. in aerobic conditions in a shaker at 150 rpm. Candida albicans (ATCC #18804) is grown in YM broth (Difco). Exponential cultures obtained by reculturing stationary overnight precultures were used for experiments.
E. coli, P. aeruginosa, and S. aureus are grown in fresh medium for approximately 1 hr to a density of about 10^8 cells/ml; the OD values at 650 nm are 0.6, 0.8, and 0.8, respectively. C. albicans is grown for approximately 4 hr to an approximate density of 10^8 cells/ml, corresponding to an OD of 6 at 650 nm (measured at 10-fold dilution). Cells were used for experiments in the mid-log growth phase.
A noncoherent lamp with filtered liquid light guides, e.g., a LumaCare™ LC122 lamp (MBG Technologies, Inc., Newport Beach, Calif.) was used to provide illumination of PS. More specifically, for illumination of fullerenes, a broad-band white light band pass filter (400-700 nm) was used, whereas for TBO, a band pass filter at 620-650 nm was used. The lamp was adjusted to give a uniform spot of about 4 cm diameter with an irradiance of 200 mW/cm^2, as measured with a power meter, e.g., a model DMM 199 meter with 201 Standard head (Coherent, Santa Clara, Calif.).
Typically, derivatized fullerenes prepared as described above are dissolved in DMSO to provide stock solutions having final concentrations of about 5 mM. […] All stock solutions were stored in the dark at room temperature.
In some experiments, for example in studies described in Examples below, suspensions of S. aureus cells (10^8 per ml) were incubated with derivatized fullerenes such as NI-1-3 and CI1-3 at a concentration of 100 μM in PBS at room temperature for 10 min. In other experiments, the bacterial suspension was centrifuged (4000×g for 10 min) after incubation and resuspended in fresh PBS before illumination; the latter procedure was referred to herein as a “wash.” E. coli, P. aeruginosa, and C. albicans were used at concentrations of about 10^8 cells per ml.
Illumination was carried out from above on microbial cell suspensions in wells of a 24-well plate. Aliquots were removed at times corresponding to the delivery of calculated fluences of light, and were serially diluted in PBS and streaked on square BHI or YM agar plates according to the method of Jett et al. (Jett, B. D., Hatter, K. L., Huycke, M. M., and Gilmore, M. S. (1997). Simplified agar plate method for quantifying viable bacteria. Biotechniques 23, 648-650). Survival fractions were calculated with reference to cells incubated in PBS alone. Values on killing curves at 0 J/cm^2 represent the dark toxicity of the fullerenes or other PS tested. Control cells were treated with light and no PS and also analyzed for viability.

[1] = test system: L929 murine fibroblast line; assay: Mammalian cell toxicity, MTT viability assay after illumination; format: cell-based, mouse
Source text: Experiments to test the effect of functionalized fullerenes on mammalian cells can be performed in a suitable mammalian cell line. One such cell line is the L929 murine fibroblast line (ATCC #CCL1), a spontaneously transformed immortalized cell line established from the normal subcutaneous areolar and adipose tissue of a male C3H/An mouse (Earle, W. R., Schilling, E. L., Stark, T. H., Straus, N. P., Brown, M. F., and Shelton, E. (1943). Production of malignancy in vitro. IV. The mouse fibroblast cultures and changes seen in the living cells. J. Natl. Cancer Inst. 4, 165-212). In a suitable assay, these cells were cultured in Dulbecco's modified Eagle's medium (Sigma) at 37° C. in a humidified atmosphere containing 5% CO2. The medium is preferably modified by using 4 mM L-glutamine (containing 1.5 g/l sodium bicarbonate and 4.5 g/l glucose), 10% fetal bovine serum (FBS), 100 U/ml penicillin, and […] streptomycin. Cells were plated in 96-well cell culture plates, at a density of about 300 cells/well, and are allowed to attach for 24 hr.
Fullerenes and other PS, e.g., TBO, were added at a concentration of about 10 μM in 200 μl complete medium per well. After 10 min, fresh medium is added, and the cultures were illuminated with white light (for fullerenes) or with red light (for TBO). At the completion of the illumination period, cells were returned to the incubator for 24 hr. Cell viability can be determined, for example, by using the MTT-microculture tetrazolium assay, a method of assessing cellular response to PDT (Merlin, J. L., Azzi, S., Lignon, D., Ramacci, C., Zeghari, N., and Guillemin, F. (1992). MTT assays allow quick and reliable measurement of the response of human tumour cells to photodynamic therapy. Eur. J. Cancer 28A, 1452-1458. This assay involves the reduction of a colorless substrate, i.e., 3-[4,5-Dimethylthiazol-2-yl]-diphenyltetrazolium bromide (Sigma, St. Louis, […].) to an insoluble dark-blue formazan product which is formed in proportion to the amount of succinate dehydrogenase activity in the mitochondria of living cells. After incubation with MTT for periods ranging from 4 to 8 hr, the medium was aspirated from each well, and […] DMSO is added. The absorbance at 570 nm was read by a microplate reader, e.g., a Spectra Max™ 340 PC (Molecular Devices, Sunnyvale, Calif.). The fraction of cells surviving was calculated by dividing the mean absorbances of formazan produced from PDT-treated cells by the mean absorbances from dark controls incubated with PS and kept at room temperature for periods of time equal to the irradiation times.

For C[N+]1(C)Cc2c(c3c4ccc5c6ccc7c8ccc9c%10c%11c%12c(c2c2c3c3c4c5c4c6c7c5c8c9c%11c6c(c%122)c3c4c56)C2C[N+](C)(C)CC%102)C1 (stereo not shown) [CI2], which “PDT activity against C. albicans” value (C. albicans; white light up to 50 J/cm^2) is on record?
Its value is “effectively killed”.

What about the “relative effectiveness in killing C. albicans” value (C. albicans; with a wash, white light) of the same molecule?
Its value is “much better than CI1”.

And the “toxicity to L929 mammalian cells at fluences used for PDI of pathogens” value ([1]; 10 μM, 10 min, white light up to 50 J/cm^2)?
The value was “not killed”.

What about the “toxicity to mammalian cells at high fluences relative to TBO” value ([1]; L929, high fluences) of the same molecule?
The value was “considerably less toxic”.
